Assay results: patent publication US7326684B2, “Peptides for enhancing resistance to microbial infections” (priority 2002, dated 2008)
Where two headings read alike, the source gives them in different places. *1 amine or outer side, *2 acyl side, *3 side chain or, on linkers, in order; H or OH if unused. Where a SMILES comes first, the peptide text is derived from it. Where no end group is shown, it is not given here. [ ]: non-standard residue; d: D form. Tyr(3-125I) = 3-[125I]iodotyrosine, O=C([C@H](Cc1ccc(O[*:3])c([125I])c1)N[*:1])[*:2]; Tyr(3-I) = N[C@@H](Cc1ccc(O)c(I)c1)C(=O)O

How the values were obtained:
[1] = test system: mouse peritoneal macrophages infected with S. typhimurium 415; test: Phagocytosis (digestion) of S. typhimurium 415 by mouse peritoneal macrophages in vitro; details: for Time within which phagocytes completely digested the captured microbes: peptide 1 nM; for BCA, bacterial cytocidal activity, percentage of phagocytes destroyed by intracellular bacteria / PA, phagocytic activity, percentage of macrophages participating in phagocytosis / PN, phagocytic number, average number of microbes per macrophage: tuftsin 100 nM, ± SEM
[2] = target: non-opioid receptors for β-endorphin on T lymphocytes; assay type: binding, human; details: for Ki: read-out: Ki, inhibition of [125I]β-endorphin binding
[3] = target: high-affinity (non-opioid) β-endorphin receptors on murine peritoneal macrophages; details: read-out: Ki, inhibition of [125I]β-endorphin binding to non-opioid receptors
[4] = target: non-opioid receptors for β-endorphin on T lymphocytes; assay type: binding, human
[5] = test system: T lymphocytes from the blood of healthy donors; test: Con A-induced proliferation of T lymphocytes; assay type: cell-based, human
[6] = mouse, in vivo
in vivo = details: BCA, mouse, ip
[7] = target: non-opioid (naloxone-insensitive) receptors for β-endorphin on T lymphocytes from normal human blood (human); test: radioligand saturation binding on human T lymphocytes, Scatchard plot, in the absence of naloxone
[8] = target: non-opioid (naloxone-insensitive) receptors for β-endorphin on T lymphocytes from normal human blood (human); test: radioligand saturation binding on human T lymphocytes, Scatchard plot, in the presence of naloxone
[9] = test system: mouse peritoneal macrophages infected with S. typhimurium 415; test: Combined action of streptomycine and peptide on digestion of S. typhimurium 415 by mouse peritoneal macrophages in vitro; details: streptomycine 50 μg/ml alone or 10 μg/ml + peptide 1 nM
[10] = target: non-opioid (naloxone-insensitive) receptors for β-endorphin on T lymphocytes from normal human blood (human); test: displacement of 1 nM [125I]β-endorphin from human T lymphocytes; Ki=IC50/(1+[L]/Kd)
[11] = target: non-opioid (naloxone-insensitive) receptors for β-endorphin on T lymphocytes from normal human blood (human); test: radioligand saturation binding on human T lymphocytes, Scatchard analysis, one-site model
[12] = target: non-opioid (naloxone-insensitive) receptors for β-endorphin on T lymphocytes from normal human blood (human); test: radioligand saturation binding on human T lymphocytes, 4 °C, Scatchard analysis
[13] = phagocytosis time 1 h, pentarphin, cyclopentarphin 1 nM
[14] = phagocytosis time 2 h, pentarphin, cyclopentarphin 1 nM
[15] = phagocytosis time 4 h, pentarphin, cyclopentarphin 1 nM
[16] = phagocytosis time 7 h, pentarphin, cyclopentarphin 1 nM
[17] = read-out: Kd of labeled peptide binding to T lymphocytes
[18] = phagocytosis time 12 h, pentarphin 1 nM
[19] = T lymphocytes of healthy donors

For “cyclo(Val-Lys-Gly-Phe-Tyr) (VKGFY; cyclic; printed: Val-Lys-Gly-Phe-Tyr) [Cyclopentarphin]”, the “Time within which phagocytes completely digested the captured microbes” value [1] was at most 7 h, the “BCA, bacterial cytocidal activity, percentage of phagocytes destroyed by intracellular bacteria” value [1, 13] was 1.25 ± 0.64% and the “PA, phagocytic activity, percentage of macrophages participating in phagocytosis” value (shortened to “PA, phagocytic activity, percentage”) [1, 13] was 87.81 ± 3.14%. The “PN, phagocytic number, average number of microbes per macrophage” value (shortened to “PN, phagocytic number … per macrophage”) [1, 13] was 7.78 ± 0.39 n, the “BCA, bacterial cytocidal activity, percentage of phagocytes destroyed by intracellular bacteria” value [1, 14] was 1.06 ± 0.49% and the “PN, phagocytic number … per macrophage” value [1, 14] was 8.81 ± 0.27 n. For the same molecule, the “BCA, bacterial cytocidal activity, percentage of phagocytes destroyed by intracellular bacteria” value [1, 15] was 2.13 ± 0.60%, the “PA, phagocytic activity, percentage” value [1, 15] was 57.43 ± 2.01% and the “PN, phagocytic number … per macrophage” value [1, 15] was 5.32 ± 0.51 n. For the same molecule, the “BCA, bacterial cytocidal activity, percentage of phagocytes destroyed by intracellular bacteria” value [1, 16] was 2.22 ± 1.31%, the “PA, phagocytic activity, percentage” value [1, 16] was 1.74 ± 0.44% and the “PN, phagocytic number … per macrophage” value [1, 16] was 0.27 ± 0.20 n.

Work on “H-VKGFY-OH [Pentarphin, Val-Lys-Gly-Phe-Tyr]” yielded a Ki [2] of 15 nM, a Ki [3] of 12 nM and a Kd [4, 17] of 36.3 ± 0.5 nM. For the same molecule, the “Effect on Con A-induced proliferation of T lymphocytes” value (shortened to “Effect on Con A-induced proliferation”) [5] was “stimulate”, the “Stimulating effect on T lymphocyte proliferation in presence of naloxone” value [5] was “not inhibited by naloxone” and the Immunogenicity [6] was “No immunogenicity”. The LD50 (in vivo) was 2500 mg/kg, the “Time within which phagocytes completely digested the captured microbes” value [1] was at most 12 h and the “BCA, bacterial cytocidal activity, percentage of phagocytes destroyed by intracellular bacteria” value [1, 13] was 1.08 ± 0.71%. For the same molecule, the “PA, phagocytic activity, percentage” value [1, 13] was 84.08 ± 2.12%, the “PN, phagocytic number … per macrophage” value [1, 13] was 7.11 ± 0.15 n and the “BCA, bacterial cytocidal activity, percentage of phagocytes destroyed by intracellular bacteria” value [1, 14] was 1.55 ± 0.65%. For the same molecule, the “PA, phagocytic activity, percentage” value [1, 14] was 89.15 ± 1.78%, the “PN, phagocytic number … per macrophage” value [1, 14] was 9.29 ± 0.74 n and the “BCA, bacterial cytocidal activity, percentage of phagocytes destroyed by intracellular bacteria” value [1, 15] was 9.32 ± 1.32%. For the same molecule, the “PA, phagocytic activity, percentage” value [1, 15] was 66.82 ± 1.14%, the “PN, phagocytic number … per macrophage” value [1, 15] was 6.02 ± 0.66 n and the “PA, phagocytic activity, percentage” value [1, 16] was 23.31 ± 0.84%. The “PN, phagocytic number … per macrophage” value [1, 16] was 1.03 ± 0.24 n, the “BCA, bacterial cytocidal activity, percentage of phagocytes destroyed by intracellular bacteria” value [1, 18] was 2.35 ± 1.21% and the “PA, phagocytic activity, percentage” value [1, 18] was 3.73 ± 0.64%. For the same molecule, the “PN, phagocytic number … per macrophage” value [1, 18] was 0.66 ± 0.12 n.

H-TCLVKGFY-OH showed a Ki [2] of 2.2 nM.

For “Thr-Lys-Pro-Arg (TKPR; printed: Thr-Lys-Pro-Arg) [Tuftsin, reference compound]”, the “BCA, bacterial cytocidal activity, percentage of phagocytes destroyed by intracellular bacteria” value [1, 13] was 1.41 ± 0.27%, the “PA, phagocytic activity, percentage” value [1, 13] was 66.07 ± 1.82% and the “PN, phagocytic number … per macrophage” value [1, 13] was 5.84 ± 0.27 n. For the same molecule, the “BCA, bacterial cytocidal activity, percentage of phagocytes destroyed by intracellular bacteria” value [1, 14] was 8.12 ± 0.99%, the “PA, phagocytic activity, percentage” value [1, 14] was 74.11 ± 1.42% and the “PN, phagocytic number … per macrophage” value [1, 14] was 7.31 ± 0.25 n. The “BCA, bacterial cytocidal activity, percentage of phagocytes destroyed by intracellular bacteria” value [1, 15] was 29.34 ± 0.75%, the “PA, phagocytic activity, percentage” value [1, 15] was 61.97 ± 1.18% and the “PN, phagocytic number … per macrophage” value [1, 15] was 6.29 ± 0.48 n. The “BCA, bacterial cytocidal activity, percentage of phagocytes destroyed by intracellular bacteria” value [1, 16] was 31.46 ± 1.23%, the “PA, phagocytic activity, percentage” value [1, 16] was 38.48 ± 0.23% and the “PN, phagocytic number … per macrophage” value [1, 16] was 3.32 ± 0.56 n. For the same molecule, the “BCA, bacterial cytocidal activity, percentage of phagocytes destroyed by intracellular bacteria” value [1, 18] was 7.64 ± 1.38%, the “PA, phagocytic activity, percentage” value [1, 18] was 9.31 ± 0.29% and the “PN, phagocytic number … per macrophage” value [1, 18] was 1.36 ± 0.86 n. The “Activity, times lower than pentarphin/cyclopentarphin” value ([1]; tuftsin acted the same way at 100 nM versus 1 nM) was 100 times.

[125I]-immunorphin (peptide) gave a Kd [7] of 7 nM and a Kd [8] of 7.4 nM.

With `[H]/N=C(/N)N[C@H]1[C@H](O)[C@@H](O)[C@H](O[C@@H]2O[C@@H](C)[C@](O)(C=O)[C@H]2O[C@@H]2O[C@@H](CO)[C@H](O)[C@@H](O)[C@@H]2NC)[C@@H](N/C(N)=N\[H])[C@@H]1O` [Streptomycine] the “BCA, bacterial cytocidal activity” value ([9]; phagocytosis time 1 h, ± SEM) was 1.04 ± 0.32%, the “PA, phagocytic activity” value ([9]; phagocytosis time 1 h, ± SEM) was 86.45 ± 2.13% and the “PN, phagocytic number” value ([9]; phagocytosis time 1 h, ± SEM) was 8.56 ± 0.76 n. For the same molecule, the “BCA, bacterial cytocidal activity” value ([9]; phagocytosis time 2 h, ± SEM) was 1.12 ± 0.74%, the “PA, phagocytic activity” value ([9]; phagocytosis time 2 h, ± SEM) was 96.17 ± 1.76% and the “PN, phagocytic number” value ([9]; phagocytosis time 2 h, ± SEM) was 2.03 ± 0.46 n. For the same molecule, the “BCA, bacterial cytocidal activity” value ([9]; phagocytosis time 4 h) was 0%, the “PA, phagocytic activity” value ([9]; phagocytosis time 4 h) was 0% and the “PN, phagocytic number” value ([9]; phagocytosis time 4 h) was 0 n.

Molecule H-LTCLVKGFY-OH has a Ki [2] of 1 nM.

Molecule H-CLVKGFY-OH [H-CLVKGFY-OH] has a Ki [2] of 3.4 nM.

For `CC(C)[C@H](N)C(=O)N[C@@H](CCCCN)C(=O)NCC(=O)N[C@@H](Cc1ccccc1)C(=O)N[C@@H](Cc1ccc(O)c(I)c1)C(=O)O` [[^125I]-H-VKGFY-OH] (H-VKGF[Tyr(3-I)]-OH), the Kd [4, 17] was 36.3 ± 0.5 nM.

In the case of “[Met^5]enkephalin [Met-enkephalin, reference compound]”, the “Inhibition of β-endorphin binding in displacement assay” value [2] is reported as “not inhibited” and the “Effect on Con A-induced proliferation” value [5] is reported as “not active”.

`CC(C)C[C@H](NC(=O)[C@H](CS)NC(=O)[C@@H](NC(=O)[C@H](CC(C)C)NC(=O)[C@@H](N)CO)[C@@H](C)O)C(=O)N[C@H](C(=O)N[C@@H](CCCCN)C(=O)NCC(=O)N[C@@H](Cc1ccccc1)C(=O)N[C@@H](Cc1ccc(O)c(I)c1)C(=O)O)C(C)C` [[^125I]-immunorphin] (H-SLTCLVKGF[Tyr(3-I)]-OH) showed a Kd [4, 17] of 7 ± 0.3 nM and a Kd ([4]; read-out: Kd of labeled peptide binding to T lymphocytes in the presence of naloxone) of 7.4 ± 0.2 nM.

In the case of `C=CCN1CC[C@]23c4c5ccc(O)c4O[C@H]2C(=O)CC[C@@]3(O)[C@H]1C5` [naloxone], the “Effect on Con A-induced proliferation” value [5, 19] is reported as “not active”.

Molecule immunorphin (H-…-OH) (peptide) has a Ki [10] of 0.6 nM.

H-LVKGFY-OH [H-LVKGFY-OH] gave a Ki [2] of 8 nM.

For SLTCLVKGFY [immunorphin], the “Effect on Con A-induced proliferation” value [5, 19] was “stimulate”.

Molecule H-CLVKGFY-OH [H-CLVKGFY-OH] has a Ki [10] of 3.4 nM.

Molecule H-VKGFY-OH [pentarphin (H-VKGFY-OH)] has a Ki [10] of 15 nM.

H-TCLVKGFY-OH [H-TCLVKGFY-OH] gave a Ki [10] of 2.2 nM.

Work on H-VKGFY-OH (also: 125I label, residue not given here) [[125I]-H-VKGFY-OH] yielded a Kd [11] of 36.3 nM.

With YGGFMTSEKSQTPLVTLFKNAIIKNA[Tyr(3-125I)]KKGE [(3-[125I]iodotyrosyl27)β-endorphin] the Kd [12] was 0.25 nM.

In the case of H-LTCLVKGFY-OH [H-…-OH], the Ki [10] is reported as 1 nM.

H-LVKGFY-OH [H-LVKGFY-OH] showed a Ki [10] of 8 nM.
